The values that follow come from ChEMBL document CHEMBL4387715, “Singlet oxygen-activatable Paclitaxel prodrugs via intermolecular activation for combined PDT and chemotherapy” (Bioorg Med Chem Lett, 2019).

Calls of active or inactive are those of the source. The calls are words filed in the database; no cut-off is given here.

Data set [1] is described as follows: Dark toxicity in rat AY27 cells assessed as reduction in cell viability at 0.025 to 1.25 uM preincubated for 2 hrs followed by 30 mins incubation under dark condition measured after 24 hrs in presence of Hexyl-5-aminolevulinic acid by MTT assay. It is filed as cell-based. The settings on record: ay-27, 1.25 µM. (Formazan colour is commonly taken as a measure of viable cells.)

A short description of data set [2]: Lipophilicity, log D of the compound at pH 7.4 by shake flask method. It is filed as physicochemical. To be noted: buffer.
A short description of data set [3]: Photocytotoxicity against rat AY27 cells assessed as cell death at 0.25 uM incubated for 2 hrs followed by 10 mW/cm2 laser light irradiation for 30 mins and measured after 24 hrs in presence of Hexyl-5-aminolevulinic acid by MTT assay relative to control. In kind it is functional, AY-27.
Data set [4] can be described thus: Dark toxicity in rat AY27 cells assessed as reduction in cell viability at 0.025 to 1.25 uM preincubated for 2 hrs followed by 30 mins incubation under dark condition and measured after 24 hrs by MTT assay. In kind it is cell-based. To be noted: ay-27, 1.25 µM.
A further data set relates to AY-27. In words: Photocytotoxicity against rat AY27 cells assessed as cell death at 0.025 to 1.25 uM incubated for 2 hrs followed by 10 mW/cm2 laser light irradiation for 30 mins and measured after 24 hrs by MTT assay. In kind it is functional, cell-based.
Data set [5] is described as follows: Lipophilicity, log D of the compound at pH 7.4. The settings on record: buffer. In kind it is physicochemical.
Data set [6] in a line: Drug localization in mitochondria of rat AY27 cells at 0.5 uM after 30 mins by Mitotracker deep Red staining-based confocal fluorescence microscopy. It is filed as ADME. To be noted: ay-27, 0.5 h.
The nature of data set [7]: Drug uptake in rat AY27 cells at 1 uM by texas red probe-based fluorescence microscopy. In kind it is ADME, cell-based. To be noted: ay-27, 1 µM, TDE = time-dependent effect.
Data set [8] in a line: Drug uptake in rat AY27 cells assessed per cell at 5 uM measured after 120 mins by fluorescence assay. In kind it is ADME, cell-based. To be noted: ay-27, 2 h.
Data set [9] in a line: Drug localization in mitochondria of rat AY27 cells at 0.5 uM assessed as protoporphyrin IX level after 2 hrs by Mitotracker deep Red staining-based confocal fluorescence microscopic method. In kind it is ADME. The settings on record: ay-27, 2 h.
A short description of data set [10]: Photodynamic anticancer activity against rat AY27 cells assessed as cell death at 0.5 uM incubated for 2 hrs followed by 10 mW/cm2 laser light irradiation for 30 mins and measured after 24 hrs by MTT assay relative to control. It is filed as functional, AY-27.

The term logD denotes lipophilicity at a set pH, counting ionised and neutral species. High values mean higher lipophilicity, low ones lower lipophilicity. Consider `CC(=O)O[C@H]1C(=O)[C@@]2(C)[C@H]([C@H](OC(=O)c3ccccc3)[C@]3(O)C[C@H](OC(=O)C(OC(=O)/C=C/N4CCC(COCCC[P+](c5ccccc5)(c5ccccc5)c5ccccc5)CC4)[C@@H](NC(=O)c4ccccc4)c4ccccc4)C(C)=C1C3(C)C)[C@]1(OC(C)=O)CO[C@@H]1C[C@@H]2O.[Br-]` (stereo partly specified), for which the figures for the Activity entry in data set [1], in [3] and in data set [4] were “Non-Toxic”, 80% and “Non-Toxic”, respectively. In data set [2], this molecule displayed a logD of 1.3. For the same molecule, in the data set with AY-27, the result was inactive.

The molecule `CC(=O)O[C@H]1C(=O)[C@@]2(C)[C@H]([C@H](OC(=O)c3ccccc3)[C@]3(O)C[C@H](OC(=O)[C@H](O)[C@@H](NC(=O)c4ccccc4)c4ccccc4)C(C)=C1C3(C)C)[C@]1(OC(C)=O)CO[C@@H]1C[C@@H]2O` [PACLITAXEL] gave a logD in data set [5] of 3.6.

As to `CCN(CC)c1ccc2c(-c3ccccc3C(=O)OCC3CCN(/C=C/C(=O)OC(C(=O)O[C@H]4C[C@@]5(O)[C@@H](OC(=O)c6ccccc6)[C@@H]6[C@]7(OC(C)=O)CO[C@@H]7C[C@H](O)[C@@]6(C)C(=O)[C@H](OC(C)=O)C(=C4C)C5(C)C)[C@@H](NC(=O)c4ccccc4)c4ccccc4)CC3)c3ccc(=[N+](CC)CC)cc-3oc2c1.[Cl-]` (stereo partly specified), the Activity result is reported as “Non-Toxic” in data set [1], 84% in [3] and “Non-Toxic” in data set [4]. In data set [2], this molecule yielded a logD of 1.9. Besides, the Drug uptake entry in [6] is recorded as “Active”; in data set [7] it was “Tde”; in [8], 0.68 fmol. Moreover, in the data set with AY-27, the result was inactive.

For the molecule `CCCCCCOC(=O)CCC(=O)CN` [HEXAMINOLEVULINATE], the Drug uptake entry in data set [9] was “Active”. In addition, in data set [10], the Activity was determined as 40%.

Consider `CC(=O)O[C@H]1C(=O)[C@@]2(C)[C@H]([C@H](OC(=O)c3ccccc3)[C@]3(O)C[C@H](OC(=O)C(OC(=O)/C=C/N4CCC(COC(=O)c5cc[n+](C)cc5)CC4)[C@@H](NC(=O)c4ccccc4)c4ccccc4)C(C)=C1C3(C)C)[C@]1(OC(C)=O)CO[C@@H]1C[C@@H]2O.[Cl-]` (stereo partly specified), for which the figures for the Activity entry in data set [1], in [3] and in data set [4] were “Non-Toxic”, 82% and “Non-Toxic”, respectively. Further, the logD in [2] worked out at 1. Further, the result with AY-27 was inactive.
